melting point | SMILES
99 to 100 °C | CCOc1cccc(CN2CCN(C(=O)c3cc4cc(Oc5ccc(N(C)C(=O)c6ccc(Cl)c(Cl)c6)cn5)ccc4n3C)CC2)c1.O=C(O)/C=C\C(=O)O [Example 374, 3,4-Dichloro-N-(6-{2-[4-(3-ethoxybenzyl)piperazine-1-carbonyl]-1-methyl-1H-indol-5-yloxy}pyridin-3-yl)-N-methylbenzamide maleate]
244 to 249 °C (dec.) | Br.COCc1ccc(CN2CCN(C(=O)c3cc4cc(Oc5ccc(NC(=O)c6ccc(Cl)c(Cl)c6)cn5)ccc4n3C)CC2)cc1 [Example 375, 3,4-Dichloro-N-(6-{2-[4-(4-methoxymethylbenzyl)piperazine-1-carbonyl]-1-methyl-1H-indol-5-yloxy}pyridin-3-yl)benzamide hydrobromide]
100 to 101 °C | COCc1ccc(CN2CCN(C(=O)c3cc4cc(Oc5ccc(N(C)C(=O)c6ccc(Cl)c(Cl)c6)cn5)ccc4n3C)CC2)cc1.O=C(O)/C=C\C(=O)O [Example 376, 3,4-Dichloro-N-(6-{2-[4-(4-methoxymethylbenzyl)piperazine-1-carbonyl]-1-methyl-1H-indol-5-yloxy}pyridin-3-yl)-N-methyl-benzamide maleate]
218 to 220 °C | Br.Br.CCOc1ccc(CN2CCN(C(=O)c3cc4cc(Oc5ccc(NC(=O)c6ccc(Cl)c(Cl)c6)cn5)ccc4n3C)CC2)nc1 [Example 378, 3,4-Dichloro-N-(6-{2-[4-(5-ethoxypyridin-2-ylmethyl)piperazine-1-carbonyl]-1-methyl-1H-indol-5-yloxy}pyridin-3-yl)benzamide dihydrobromide]
160 to 161 °C | COc1ccc(CN2CCN(C(=O)c3cc4cc(Oc5ncc(N(C)C(=O)c6ccc(C(F)(F)F)cc6)cn5)ccc4n3C)CC2)cc1.O=C(O)/C=C\C(=O)O [Example 381, N-(2-{2-[4-(4-Methoxybenzyl)piperazine-1-carbonyl]-1-methyl-1H-indol-5-yloxy}pyrimidin-5-yl)-N-methyl-4-trifluoromethylbenzamide maleate]
181 to 182 °C | Cn1c(C(=O)N2CCN(Cc3ccccn3)CC2)cc2cc(Oc3ncc(NC(=O)c4ccc(C(F)(F)F)cc4)cn3)ccc21 [Example 382, N-{2-[1-Methyl-2-(4-pyridin-2-ylmethylpiperazine-1-carbonyl)-1H-indol-5-yloxy]pyrimidin-5-yl}-4-trifluoromethylbenzamide]
154 to 156 °C | CN(C(=O)c1ccc(C(F)(F)F)cc1)c1cnc(Oc2ccc3c(c2)cc(C(=O)N2CCN(Cc4ccc(C#N)cc4)CC2)n3C)nc1.O=C(O)/C=C\C(=O)O [Example 383, N-(2-{2-[4-(4-Cyanobenzyl)piperazine-1-carbonyl]-1-methyl-1H-indol-5-yloxy}pyrimidin-5-yl)-N-methyl-4-trifluoromethylbenzamide maleate]
156 to 157 °C | CCOc1ccc(CN2CCN(C(=O)c3cc4cc(Oc5ncc(NC(=O)c6ccc(Cl)c(Cl)c6)cn5)ccc4n3C)CC2)cc1 [Example 384, 3,4-Dichloro-N-(2-{2-[4-(4-ethoxybenzyl)piperazine-1-carbonyl]-1-methyl-1H-indol-5-yloxy}pyrimidin-5-yl)benzamide]
161 to 163 °C | Cn1c(C(=O)N2CCN(Cc3ccccn3)CC2)cc2cc(Oc3ncc(NC(=O)c4ccc(Cl)c(Cl)c4)cn3)ccc21 [Example 385, 3,4-Dichloro-N-{2-[1-methyl-2-(4-pyridin-2-ylmethylpiperazine-1-carbonyl)-1H-indol-5-yloxy]pyrimidin-5-yl}benzamide]
216 to 219 °C | Br.Br.Cn1c(C(=O)N2CCN(Cc3ccc(C#N)cn3)CC2)cc2cc(Oc3ccc(NC(=O)c4ccc(Cl)c(Cl)c4)cn3)ccc21 [Example 386, 3,4-Dichloro-N-(6-{2-[4-(5-cyanopyridin-2-ylmethyl)piperazine-1-carbonyl]-1-methyl-1H-indol-5-yloxy}pyridin-3-yl)benzamide dihydrobromide]
143 to 144 °C | COc1ccc(CN2CCN(C(=O)c3cc4cc(Oc5ccc(N(C)C(=O)c6ccc(C(F)(F)F)cc6)cn5)ccc4n3C)CC2)nc1.O=C(O)/C=C\C(=O)O [Example 387, N-(6-{2-[4-(5-Methoxypyridin-2-ylmethyl)piperazine-1-carbonyl]-1-methyl-1H-indol-5-yloxy}pyridin-3-yl)-N-methyl-4-trifluoromethyl-benzamide maleate]
223 to 225 °C | Br.Br.COc1ccc(CN2CCN(C(=O)c3cc4cc(Oc5ccc(NC(=O)c6ccc(Cl)c(Cl)c6)cn5)ccc4n3C)CC2)nc1 [Example 388, 3,4-Dichloro-N-(6-{2-[4-(5-methoxypyridin-2-ylmethyl)piperazine-1-carbonyl]-1-methyl-1H-indol-5-yloxy}pyridin-3-yl)benzamide dihydrobromide]
155 to 156 °C | COc1ccc(CN2CCN(C(=O)c3cc4cc(Oc5ccc(N(C)C(=O)c6ccc(Cl)c(Cl)c6)cn5)ccc4n3C)CC2)nc1.O=C(O)/C=C\C(=O)O [Example 389, 3,4-Dichloro-N-(6-{2-[4-(5-methoxypyridin-2-ylmethyl)piperazine-1-carbonyl]-1-methyl-1H-indol-5-yloxy}pyridin-3-yl)-N-methyl-benzamide maleate]
239 to 241 °C | Br.CCc1ccc(CN2CCN(C(=O)c3cc4cc(Oc5ccc(NC(=O)c6ccc(C(F)(F)F)cc6)cn5)ccc4n3C)CC2)cc1 [Example 390, N-(6-{2-[4-(4-Ethylbenzyl)piperazine-1-carbonyl]-1-methyl-1H-indol-5-yloxy}pyridin-3-yl)-4-trifluoromethylbenzamide hydrobromide]
128 to 130 °C | C[C@@H]1CN(Cc2ccccn2)CCN1C(=O)c1cc2cc(Oc3ccc(NC(=O)c4ccc(C(F)(F)F)cc4)cn3)ccc2n1C.O=C(O)C(=O)O.O=C(O)C(=O)O [Example 392, N-{6-[1-Methyl-2-((R)-2-methyl-4-pyridin-2-ylmethylpiperazine-1-carbonyl)-1H-indol-5-yloxy]pyridin-3-yl}-4-trifluoromethyl-benzamide dioxalate]

Second part, the compound before the results:

SMILES | melting point
Br.CCOc1ccc(CN2CCN(C(=O)c3cc4cc(Oc5ccc(NC(=O)c6ccc(Cl)c(Cl)c6)cn5)ccc4n3C)CC2)cc1 [Example 360, 3,4-Dichloro-N-(6-{2-[4-(4-ethoxybenzyl)piperazine-1-carbonyl]-1-methyl-1H-indol-5-yloxy}pyridin-3-yl)benzamide hydrobromide] | 235 to 238 °C (dec.)
CCOc1ccc(CN2CCN(C(=O)c3cc4cc(Oc5ccc(N(C)C(=O)c6ccc(Cl)c(Cl)c6)cn5)ccc4n3C)CC2)cc1.CS(=O)(=O)O [Example 361, 3,4-Dichloro-N-(6-{2-[4-(4-ethoxybenzyl)piperazine-1-carbonyl]-1-methyl-1H-indol-5-yloxy}pyridin-3-yl)-N-methylbenzamide methanesulfonate] | 168 to 170 °C
Br.Br.Cc1cc(Oc2ccc3c(c2)cc(C(=O)N2CCN(Cc4ccncc4)CC2)n3C)ncc1NC(=O)c1ccc(C(F)(F)F)cc1 [Example 362, N-{4-Methyl-6-[1-methyl-2-(4-pyridin-4-ylmethylpiperazine-1-carbonyl)-1H-indol-5-yloxy]pyridin-3-yl}-4-trifluoromethyl-benzamide dihydrobromide] | 228 to 232 °C (dec.)
Br.CCOc1ccc(CN2CCN(C(=O)c3cc4cc(Oc5ccc(NC(=O)c6ccc(C(F)(F)F)cc6)cn5)ccc4n3C)CC2)cc1 [Example 363, N-(6-{2-[4-(4-Ethoxybenzyl)piperazine-1-carbonyl]-1-methyl-1H-indol-5-yloxy}pyridin-3-yl)-4-trifluoromethylbenzamide hydrobromide] | 231 to 234 °C
Br.CCOc1ccc(CN2CCN(C(=O)c3cc4cc(Oc5cc(C)c(NC(=O)c6ccc(Cl)c(Cl)c6)cn5)ccc4n3C)CC2)cc1 [Example 364, 3,4-Dichloro-N-(6-{2-[4-(4-ethoxybenzyl)piperazine-1-carbonyl]-1-methyl-1H-indol-5-yloxy}-4-methylpyridin-3-yl)benzamide hydrobromide] | 197 to 199 °C
Br.CCOc1ccc(CN2CCN(C(=O)c3cc4cc(Oc5cc(C)c(N(C)C(=O)c6ccc(C(F)(F)F)cc6)cn5)ccc4n3C)CC2)cc1 [Example 365, N-(6-{2-[4-(4-Ethoxybenzyl)piperazine-1-carbonyl]-1-methyl-1H-indol-5-yloxy}-4-methylpyridin-3-yl)-N-methyl-4-trifluoromethyl-benzamide hydrobromide] | 163 to 166 °C
Br.CCOc1ccc(CN2CCN(C(=O)c3cc4cc(Oc5cc(C)c(N(C)C(=O)c6ccc(Cl)c(Cl)c6)cn5)ccc4n3C)CC2)cc1 [Example 366, 3,4-Dichloro-N-(6-{2-[4-(4-ethoxybenzyl)piperazine-1-carbonyl]-1-methyl-1H-indol-5-yloxy}-4-methylpyridin-3-yl)-N-methylbenzamide hydrobromide] | 201 to 204 °C
Br.CCCOc1ccc(CN2CCN(C(=O)c3cc4cc(Oc5ccc(NC(=O)c6ccc(Cl)c(Cl)c6)cn5)ccc4n3C)CC2)cc1 [Example 369, 3,4-Dichloro-N-(6-{1-methyl-2-[4-(4-propoxybenzyl)piperazine-1-carbonyl]-1H-indol-5-yloxy}pyridin-3-yl)benzamide hydrobromide] | 249 to 252 °C (dec.)
CCCOc1ccc(CN2CCN(C(=O)c3cc4cc(Oc5ccc(N(C)C(=O)c6ccc(Cl)c(Cl)c6)cn5)ccc4n3C)CC2)cc1.O=C(O)/C=C\C(=O)O [Example 370, 3,4-Dichloro-N-methyl-N-(6-{1-methyl-2-[4-(4-propoxybenzyl)-piperazine-1-carbonyl]-1H-indol-5-yloxy}pyridin-3-yl)benzamide maleate] | 163 to 164 °C
CCOc1ccc(CN2CCN(C(=O)c3cc4cc(Oc5ccc(N(C)C(=O)c6ccc(Cl)c(Cl)c6)c(C)n5)ccc4n3C)CC2)cc1.O=C(O)/C=C\C(=O)O [Example 372, 3,4-Dichloro-N-(6-{2-[4-(4-ethoxybenzyl)piperazine-1-carbonyl]-1-methyl-1H-indol-5-yloxy}-2-methylpyridin-3-yl)-N-methylbenzamide maleate] | 131 to 132 °C
Br.CCOc1cccc(CN2CCN(C(=O)c3cc4cc(Oc5ccc(NC(=O)c6ccc(Cl)c(Cl)c6)cn5)ccc4n3C)CC2)c1 [Example 373, 3,4-Dichloro-N-(6-{2-[4-(3-ethoxybenzyl)piperazine-1-carbonyl]-1-methyl-1H-indol-5-yloxy}pyridin-3-yl)benzamide hydrobromide] | 225 to 227 °C
